{"source": "patent US11331289B2", "about": "“Antimicrobial composition” (priority 2017, dated 2022)", "key": {"MRSP 16125": {"test_system": "MRSP 16125", "assay": "Time-killing curve, inoculum 10^6 CFU/ml (MIC 0.5 μg/ml)", "assay_type": "cell-based, Staphylococcus pseudintermedius", "description": "(§1) The objective of this study is to assess in vitro the time-killing curves of oxyclozanide against four strains of Methicillin-Resistant Staphylococcus from dogs.\n(§2) Two Methicillin-Resistant Staphylococcus aureus (MRSA) and two Methicillin-Resistant Staphylococcus pseudintermedius (MRSP) isolated from the clinics have been tested.\n(§3) The assessment of time-killing curves has been realized by a broth macrodilution method (Mueller-Hinton II Broth).\n(§4) Oxyclozanide is diluted in (DMSO) into sterile tubes in order to obtain the following concentrations from 800 to 6.25 μg/ml. Those concentrations and stock standard solution are then diluted (1/10) in Mueller-Hinton II Broth in order to obtain the following concentrations from […] (See Table 2).\n(§5) Each operation is performed under sterile conditions. Each working standard solution (10*the final active ingredient concentration) is distributed in tubes (1 ml, for a final volume of 10 ml after addition of 9 ml of inoculum). One tube without active ingredient is used as growth control (Concentration=0).\n(§6) Bacterial isolates are sub-cultured from one cryobead on Columbia agar supplemented with 5% of blood. Pure cultures are incubated during 18-24 hours at 37° C. Three to five isolated colonies of similar appearance are selected from a previous culture and transferred into tubes containing 9 ml of Mueller-Hinton II Broth. The broth is incubated during 12-18 hours at 37° C. 0.5 to 1 ml of this broth is inoculated to another Mueller-Hinton II Broth 9 ml tube which is incubated during 3 to 4 hours at 37° C. to reach the exponential growth phase. The bacterial inoculum grown exponential phase is suspended to an optical density of McFarland standard scale 0.5 equivalent to a bacterial density of 10^8 CFU/ml and then adjusted to a concentration of about 5.10^5 CFU/ml as indicated by the guideline CLSI M26-A and to a second inoculum tested: 10^6 CFU/ml.\n(§7) 9 ml of bacterial inoculum grown to exponential phase is added to 1 ml of active ingredient (or Mueller Hinton II Broth for the growth control). Tubes are incubated at 35° C. during 24 hours.\n(§8) At times 0, 2, 4, 6 and 24 hours, 100 μl of broth of each tube is sampled and diluted in microplates:\n(§9) Each well is re-cultured by streaking 10 μl on Columbia agar supplemented with 5% of blood. Plates are incubated at 37° C. during 18-24 hours incubation. Thus, residual bacterial concentrations are determined (CFU/ml). Results are expressed in log10 values of CFU/ml over-time in broth. Due to the procedure used, the minimal bacterial concentration that can be assessed is 10^2 CFU/ml."}, "MRSA 16110": {"test_system": "MRSA 16110", "assay": "Time-killing curve, inoculum 5.10^5 CFU/ml (MIC 1 μg/ml)", "assay_type": "cell-based, Staphylococcus aureus", "description": "as §1, §2, §3, §4, §5, §6, §7, §8, §9"}}, "data": [{"compound": "O=C(Nc1cc(Cl)cc(Cl)c1O)c1c(O)c(Cl)cc(Cl)c1Cl", "note": "[Oxyclozanide]", "values": [{"measurement": "Counting results", "setting": "MRSP 16125; 1 MIC, 0 h", "value": "1.000E+06", "unit": "CFU/ml"}, {"measurement": "Counting results", "setting": "MRSP 16125; 1 MIC, 2 h", "value": "1.000E+06", "unit": "CFU/ml"}, {"measurement": "Counting results", "setting": "MRSP 16125; 1 MIC, 4 h", "value": "1.500E+05", "unit": "CFU/ml"}, {"measurement": "Counting results", "setting": "MRSP 16125; 1 MIC, 6 h", "value": "1.000E+05", "unit": "CFU/ml"}, {"measurement": "Counting results", "setting": "MRSP 16125; 1 MIC, 24 h", "value": "4.100E+06", "unit": "CFU/ml"}, {"measurement": "Counting results", "setting": "MRSP 16125; 2 MIC, 0 h", "value": "1.000E+06", "unit": "CFU/ml"}, {"measurement": "Counting results", "setting": "MRSP 16125; 2 MIC, 2 h", "value": "1.600E+03", "unit": "CFU/ml"}, {"measurement": "Counting results", "setting": "MRSP 16125; 2 MIC, 4 h", "value": "1.000E+02", "unit": "CFU/ml"}, {"measurement": "Counting results", "setting": "MRSP 16125; 2 MIC, 6 h", "value": "1.000E+02", "unit": "CFU/ml"}, {"measurement": "Counting results", "setting": "MRSP 16125; 2 MIC, 24 h", "value": "1.000E+02", "unit": "CFU/ml"}, {"measurement": "Counting results", "setting": "MRSP 16125; 4 MIC, 0 h", "value": "1.000E+06", "unit": "CFU/ml"}, {"measurement": "Counting results", "setting": "MRSP 16125; 4 MIC, 2 h", "value": "5.000E+02", "unit": "CFU/ml"}, {"measurement": "Counting results", "setting": "MRSP 16125; 4 MIC, 4 h", "value": "1.000E+02", "unit": "CFU/ml"}, {"measurement": "Counting results", "setting": "MRSP 16125; 4 MIC, 6 h", "value": "1.000E+02", "unit": "CFU/ml"}, {"measurement": "Counting results", "setting": "MRSP 16125; 4 MIC, 24 h", "value": "1.000E+02", "unit": "CFU/ml"}, {"measurement": "Counting results", "setting": "MRSP 16125; 8 MIC, 0 h", "value": "1.000E+06", "unit": "CFU/ml"}, {"measurement": "Counting results", "setting": "MRSP 16125; 8 MIC, 2 h", "value": "1.000E+02", "unit": "CFU/ml"}, {"measurement": "Counting results", "setting": "MRSP 16125; 8 MIC, 4 h", "value": "1.000E+02", "unit": "CFU/ml"}, {"measurement": "Counting results", "setting": "MRSP 16125; 8 MIC, 6 h", "value": "1.000E+02", "unit": "CFU/ml"}, {"measurement": "Counting results", "setting": "MRSP 16125; 8 MIC, 24 h", "value": "1.000E+02", "unit": "CFU/ml"}, {"measurement": "Counting results", "setting": "MRSP 16125; 16 MIC, 0 h", "value": "1.000E+06", "unit": "CFU/ml"}, {"measurement": "Counting results", "setting": "MRSP 16125; 16 MIC, 2 h", "value": "1.000E+02", "unit": "CFU/ml"}, {"measurement": "Counting results", "setting": "MRSP 16125; 16 MIC, 4 h", "value": "1.000E+02", "unit": "CFU/ml"}, {"measurement": "Counting results", "setting": "MRSP 16125; 16 MIC, 6 h", "value": "1.000E+02", "unit": "CFU/ml"}, {"measurement": "Counting results", "setting": "MRSP 16125; 16 MIC, 24 h", "value": "1.000E+02", "unit": "CFU/ml"}, {"measurement": "Time to obtain bactericidal effect at 4 MIC", "setting": "MRSP 16125; 16125/10^6 CFU/ml, >=3 log10 decrease in CFU", "value": 2, "unit": "h"}, {"measurement": "Counting results", "setting": "MRSP 16125; ¼ MIC, 0 h", "value": "1.000E+06", "unit": "CFU/ml"}, {"measurement": "Counting results", "setting": "MRSP 16125; ¼ MIC, 2 h", "value": "1.500E+06", "unit": "CFU/ml"}, {"measurement": "Counting results", "setting": "MRSP 16125; ¼ MIC, 4 h", "value": "1.000E+07", "unit": "CFU/ml"}, {"measurement": "Counting results", "setting": "MRSP 16125; ¼ MIC, 6 h", "value": "1.000E+08", "unit": "CFU/ml"}, {"measurement": "Counting results", "setting": "MRSP 16125; ¼ MIC, 24 h", "value": "2.600E+09", "unit": "CFU/ml"}, {"measurement": "Counting results", "setting": "MRSP 16125; ½ MIC, 0 h", "value": "1.000E+06", "unit": "CFU/ml"}, {"measurement": "Counting results", "setting": "MRSP 16125; ½ MIC, 2 h", "value": "1.800E+06", "unit": "CFU/ml"}, {"measurement": "Counting results", "setting": "MRSP 16125; ½ MIC, 4 h", "value": "2.800E+06", "unit": "CFU/ml"}, {"measurement": "Counting results", "setting": "MRSP 16125; ½ MIC, 6 h", "value": "3.400E+06", "unit": "CFU/ml"}, {"measurement": "Counting results", "setting": "MRSP 16125; ½ MIC, 24 h", "value": "1.900E+08", "unit": "CFU/ml"}, {"measurement": "Counting results", "setting": "MRSA 16110; 1 MIC, 0 h", "value": "4.100E+05", "unit": "CFU/ml"}, {"measurement": "Counting results", "setting": "MRSA 16110; 1 MIC, 2 h", "value": "9.300E+04", "unit": "CFU/ml"}, {"measurement": "Counting results", "setting": "MRSA 16110; 1 MIC, 4 h", "value": "6.500E+04", "unit": "CFU/ml"}, {"measurement": "Counting results", "setting": "MRSA 16110; 1 MIC, 6 h", "value": "1.100E+05", "unit": "CFU/ml"}, {"measurement": "Counting results", "setting": "MRSA 16110; 1 MIC, 24 h", "value": "6.100E+05", "unit": "CFU/ml"}, {"measurement": "Counting results", "setting": "MRSA 16110; 2 MIC, 0 h", "value": "4.100E+05", "unit": "CFU/ml"}, {"measurement": "Counting results", "setting": "MRSA 16110; 2 MIC, 2 h", "value": "3.300E+03", "unit": "CFU/ml"}, {"measurement": "Counting results", "setting": "MRSA 16110; 2 MIC, 4 h", "value": "1.800E+03", "unit": "CFU/ml"}, {"measurement": "Counting results", "setting": "MRSA 16110; 2 MIC, 6 h", "value": "4.000E+02", "unit": "CFU/ml"}, {"measurement": "Counting results", "setting": "MRSA 16110; 2 MIC, 24 h", "value": "1.000E+02", "unit": "CFU/ml"}, {"measurement": "Counting results", "setting": "MRSA 16110; 4 MIC, 0 h", "value": "4.100E+05", "unit": "CFU/ml"}, {"measurement": "Counting results", "setting": "MRSA 16110; 4 MIC, 2 h", "value": "3.000E+02", "unit": "CFU/ml"}, {"measurement": "Counting results", "setting": "MRSA 16110; 4 MIC, 4 h", "value": "1.000E+02", "unit": "CFU/ml"}, {"measurement": "Counting results", "setting": "MRSA 16110; 4 MIC, 6 h", "value": "1.000E+02", "unit": "CFU/ml"}, {"measurement": "Counting results", "setting": "MRSA 16110; 4 MIC, 24 h", "value": "1.000E+02", "unit": "CFU/ml"}, {"measurement": "Counting results", "setting": "MRSA 16110; 8 MIC, 0 h", "value": "4.100E+05", "unit": "CFU/ml"}, {"measurement": "Counting results", "setting": "MRSA 16110; 8 MIC, 2 h", "value": "2.000E+02", "unit": "CFU/ml"}, {"measurement": "Counting results", "setting": "MRSA 16110; 8 MIC, 4 h", "value": "1.000E+02", "unit": "CFU/ml"}]}]}
